Columns and labels:
Type in all cases: functional
[1] = test system: Human immunodeficiency virus 1; assay: Antiviral activity against Human immunodeficiency virus 1 clone 38086 harboring K49R, V60I, I135V, Q145M, Q174H, G196E, Q207E, R211K, V245K mutation in reverse transcriptase by phenosense assay relative to wild type
[2] = test system: Human immunodeficiency virus 1; assay: Antiviral activity against Human immunodeficiency virus 1 clone 14682 harboring 122E, 135V, Q145V, 200A mutation in reverse transcriptase by phenosense assay relative to wild type
[3] = test system: Human immunodeficiency virus 1; assay: Antiviral activity against Human immunodeficiency virus 1 clone Q9016 harboring K122E, Q145M, I202V, F214L mutation in reverse transcriptase by phenosense assay relative to wild type
[4] = test system: Human immunodeficiency virus 1; assay: Antiviral activity against Human immunodeficiency virus 1 clone pNL4-3-Q145M harboring K102Q, Q145M, S162C, K277R, I293V mutation in reverse transcriptase by phenosense assay relative to wild type

Row | SMILES | fold change (FC) [1] | fold change (FC) [2] | fold change (FC) [3] | fold change (FC) [4]
1 | Nc1nc(NC2CC2)c2ncn([C@H]3C=C[C@@H](CO)C3)c2n1 [ABACAVIR] | 0.9 | 1.1 | 1.2 | 1.1
2 | CC(C)Nc1cccnc1N1CCN(C(=O)c2cc3cc(NS(C)(=O)=O)ccc3[nH]2)CC1 [DELAVIRDINE] | 0.4 | 0.9 | 0.7 | 0.6
3 | O=c1[nH]cnc2c1ncn2[C@H]1CC[C@@H](CO)O1 [DIDANOSINE] | 1.5 | 1 | 0.9 | 1.1
4 | O=C1Nc2ccc(Cl)cc2[C@@](C#CC2CC2)(C(F)(F)F)O1 [EFAVIRENZ] | 1 | 1.3 | 1.2 | 0.9
5 | Nc1nc(=O)n([C@@H]2CS[C@H](CO)O2)cc1F [EMTRICITABINE] | 1.2 | 0.5 | 1.1 | 0.9
6 | Cc1ccnc2c1NC(=O)c1cccnc1N2C1CC1 [NEVIRAPINE] | 1.1 | 0.5 | 0.7 | 1.3
7 | Cc1cn([C@H]2C=C[C@@H](CO)O2)c(=O)[nH]c1=O [STAVUDINE] | 1.1 | 0.9 | 1.1 | 0.9
8 | C[C@H](Cn1cnc2c(N)ncnc21)OCP(=O)(O)O [TENOFOVIR ANHYDROUS] | 0.9 | 0.9 | 1.5 | 0.9
9 | Cc1cn([C@H]2C[C@H](N=[N+]=[N-])[C@@H](CO)O2)c(=O)[nH]c1=O [ZIDOVUDINE] | 0.9 | 0.8 | 1.1 | 0.7
